According to patent US9802957B2, “Processes of preparing a JAK1 inhibitor and new forms thereto” (Incyte Corporation, priority 2014, dated 2017):
Blank lines part the entries; values can stand above or below the compound they belong to.

Key:
Humidity Chamber Study A = assay type: physicochemical; details: 40° C., 75% relative humidity, 5 days
Experimental: Temperature: 40° C.; Relative humidity: 75%; Time: 5 days.
The compound of Example 9 was placed in a humidity chamber set at 40° C. and 75% relative humidity for 5 days.

Humidity Chamber Study B = assay type: physicochemical; details: 30° C., 90% relative humidity, 7 days
Experimental: Temperature: 30° C.; Relative humidity: 90%; Time: 7 days.
The compound of Example 9 was placed in a humidity chamber set at 30° C. and 90% relative humidity (RH) for 7 days. […] The XRPD patterns of the 30° C./90% RH sample corresponded to the hydrate form obtained from an aqueous suspension of the anhydrous crystalline free base drug substance.

[1] = Dynamic Vapor Sorption (DVS) study; assay type: physicochemical
Experimental: Some of the compounds prepared were analyzed using Dynamic Vapor Sorption (DVS). Typical DVS conditions are as follows: SGA-100 Symmetric Vapor Sorption Analyzer from VTI Corporation. The moisture uptake profile was completed in four cycles in 10% relative humidity (RH) increments with the first adsorption from 25% to 95% RH, followed by desorption in 10% increments from 95% to 5% RH. The equilibration criteria were 0.0050 wt % in 5 minutes with a maximum equilibration time of 180 minutes; Data logging interval: 2.00 min or 0.0100 wt %. All adsorption and desorption were performed at room temperature (25° C.). No pre-drying step was applied.
A Dynamic Vapor Sorption (DVS) study was conducted on the compound of Example 9 to monitor the hydroscopicity, hydrate formation and dehydration, as well as solid form transformation. The moisture uptake profile was completed in four cycles in 10% relative humidity (RH) increments with the first adsorption from 25% to 95% RH, followed by desorption in 10% increments from 95% to 5% RH. The equilibration criteria were as follows: 0.0050 wt % in 5 minutes with a maximum equilibration time of 180 minutes. All adsorption and desorption were performed at room temperature (25° C.). No pre-drying step was applied for the sample.

[2] = system: human JAK1 (a.a. 837-1142); assay: In vitro JAK kinase assay (HTRF), JAK1; assay type: biochemical
Experimental: (§1) Compounds herein were tested for inhibitory activity of JAK targets according to the following in vitro assay described in Park et al., Analytical Biochemistry 1999, 269, 94-104. The catalytic domains of human JAK1 (a.a. 837-1142), JAK2 (a.a. 828-1132) and JAK3 (a.a. 781-1124) were expressed using baculovirus in insect cells and purified. The catalytic activity of JAK1, JAK2 or JAK3 was assayed by measuring the phosphorylation of a biotinylated peptide. The phosphorylated peptide was detected by homogenous time resolved fluorescence (HTRF). IC50s of compounds were measured for each kinase in the 40 μL, reactions that contain the enzyme, ATP and 500 nM peptide in 50 mM Tris (pH 7.8) buffer with 100 mM NaCl, 5 mM DTT, and 0.1 mg/mL (0.01%) BSA. For the 1 mM IC50 measurements, ATP concentration in the reactions was 1 mM. Reactions were carried out at room temperature for 1 hour and then stopped with 20 μL 45 mM EDTA, 300 nM SA-APC, 6 nM Eu-Py20 in assay buffer (Perkin Elmer, Boston, Mass.). Binding to the Europium labeled antibody took place for 40 minutes and HTRF signal was measured on a PHERAi star plate reader (BMG, Cary, N.C.).

[3] = target: T1, human JAK1 (a.a. 837-1142) (Homo sapiens, UniProt P23458); assay: In vitro JAK kinase assay (HTRF), JAK1; assay type: biochemical; details: 1 mM ATP
T1 construct: The catalytic domains of human JAK1 (a.a. 837-1142); made in house; host or cells: insect cells (baculovirus)
Experimental: as §1

[4] = target: T2, human JAK2 (a.a. 828-1132) (Homo sapiens, UniProt O60674); assay: In vitro JAK kinase assay (HTRF), JAK2; assay type: biochemical; details: 1 mM ATP
T2 construct: JAK2 (a.a. 828-1132); made in house; host or cells: insect cells (baculovirus)
Experimental: as §1

T2 sequence (O60674 828-1132): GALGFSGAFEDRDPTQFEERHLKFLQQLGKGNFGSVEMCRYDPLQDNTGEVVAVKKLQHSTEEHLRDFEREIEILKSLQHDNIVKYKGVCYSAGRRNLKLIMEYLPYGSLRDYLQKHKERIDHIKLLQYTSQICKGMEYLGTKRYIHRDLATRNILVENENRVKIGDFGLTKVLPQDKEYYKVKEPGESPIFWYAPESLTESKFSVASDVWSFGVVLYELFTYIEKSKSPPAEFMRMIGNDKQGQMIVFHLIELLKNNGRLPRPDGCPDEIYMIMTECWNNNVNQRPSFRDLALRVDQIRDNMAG
T1 sequence (P23458 849-1154): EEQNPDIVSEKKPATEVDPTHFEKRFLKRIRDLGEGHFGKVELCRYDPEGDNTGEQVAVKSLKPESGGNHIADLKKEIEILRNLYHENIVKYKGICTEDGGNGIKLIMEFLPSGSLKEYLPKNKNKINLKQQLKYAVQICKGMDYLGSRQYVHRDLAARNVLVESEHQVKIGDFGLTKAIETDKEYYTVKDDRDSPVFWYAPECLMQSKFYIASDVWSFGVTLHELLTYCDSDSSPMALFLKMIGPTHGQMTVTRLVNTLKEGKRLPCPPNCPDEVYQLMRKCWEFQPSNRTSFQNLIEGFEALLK

Water content by KF after humidity chamber (Humidity Chamber Study A): 4.6% | Weight loss observed by TGA after humidity chamber (Humidity Chamber Study A): 5.01% | Water content by KF after humidity chamber (Humidity Chamber Study B): 4.72% | Weight loss observed by TGA after humidity chamber (Humidity Chamber Study B): 5.05% | Water absorption of the anhydrous form ([1]; DVS, 25° C., four cycles, 5% to 95% RH): slow below 85% RH and fast above 85% RH | Solid form after DVS cycle 4 ([1]; DVS, 25° C., XRPD before and after): fully converted to the hydrate form
Compound: C[C@@H](O)c1nc2cnc3ccsc3c2n1[C@H]1CC[C@H](CC#N)OC1 [Example 9, 2-((2R,5S)-5-(2-((R)-1-hydroxyethyl)-1H-imidazo[4,5-d]thieno[3,2-b]pyridin-1-yl)tetrahydro-2H-pyran-2-yl)acetonitrile]
Solid form by XRPD after humidity chamber (Humidity Chamber Study A): converted to the crystalline hydrate form | Solid form by XRPD after humidity chamber (Humidity Chamber Study B): converted to the crystalline hydrate form | Behaviour under ambient storage conditions ([1]; ambient storage): slowly absorb water and convert to hydrate form

JAK2/JAK1 ratio ([2]; 1 mM ATP, ratio of IC50s): > 10 | JAK2/JAK1 IC50 ratio ([2]; general statement of selectivity for JAK1 over JAK2): > 10 | IC50 [3]: ≤ 100 nM | IC50 [4]: ≤ 1000 nM
Compound: C[C@@H](O)c1nc2cnc3ccsc3c2n1[C@H]1CC[C@H](CC#N)OC1 [Formula Ia, 2-((2R,5S)-5-(2-((R)-1-hydroxyethyl)-1H-imidazo[4,5-d]thieno[3,2-b]pyridin-1-yl)tetrahydro-2H-pyran-2-yl)acetonitrile]

Dehydration process from the hydrate to the anhydrous form ([1]; DVS desorption, 25° C.): very slow, even at 5% RH
Compound: C[C@@H](O)c1nc2cnc3ccsc3c2n1[C@H]1CC[C@H](CC#N)OC1 [Example 10, 2-((2R,5S)-5-(2-((R)-1-hydroxyethyl)-1H-imidazo[4,5-d]thieno[3,2-b]pyridin-1-yl)tetrahydro-2H-pyran-2-yl)acetonitrile monohydrate]
Physical stability to humidity ([1]; DVS, 25° C.): physically stable in a wide range of humidity conditions
